Results as given in DBAASP.
In brackets after ≈: the same amount, converted by molar mass.

Assays:
Assay in all cases: ≥ marks a high value that may be exact or a test limit, other limits are often not marked, values filed in µg/mL are converted to µM
[1] = test system: Pseudomonas aeruginosa Ps4
[2] = test system: Cryptococcus neoformans ATCC 32045
[3] = test system: Escherichia coli ATCC 2592
[4] = test system: Staphylococcus aureus ATCC 33591
[5] = test system: Pseudomonas aeruginosa ATCC 10145
[6] = test system: Candida albicans ATCC 10231
Escherichia coli JW0013 = test system: Escherichia coli JW0013

SMILES | MIC [1] | MIC [2] | MIC [3] | MIC [4] | MIC [5] | MIC [6] | MIC (Escherichia coli JW0013)
CC[C@H](C)[C@H](NC(=O)[C@H](CC(N)=O)NC(=O)[C@H](CCCN=C(N)N)NC(=O)[C@H](CCC(N)=O)NC(=O)[C@H](Cc1c[nH]c2ccccc12)NC(=O)[C@H](Cc1ccccc1)NC(=O)[C@@H](N)CS)C(=O)N[C@@H](CCCN=C(N)N)C(=O)N[C@@H](CCCCN)C(=O)N[C@H](C(=O)N[C@@H](CS)C(=O)N[C@@H](CCCN=C(N)N)C(N)=O)C(C)C [CFWQRNIRKVCR] | ≥ 155 µM |  |  |  |  |  | 
CC[C@H](C)[C@H](NC(=O)[C@H](CC(N)=O)NC(=O)[C@H](CCCN=C(N)N)NC(=O)[C@@H](NC(=O)[C@H](Cc1c[nH]c2ccccc12)NC(=O)[C@@H](N)Cc1ccccc1)[C@@H](C)CC)C(=O)N[C@@H](CCCN=C(N)N)C(=O)N[C@@H](CCCCN)C(=O)N[C@H](C(=O)N[C@@H](CCCN=C(N)N)C(N)=O)C(C)C [FWIRNIRKVR] | ≥ 180 µM |  |  |  |  |  | 
CC[C@H](C)[C@H](NC(=O)[C@H](CCCN=C(N)N)NC(=O)[C@H](CCCN=C(N)N)NC(=O)[C@H](CCCN=C(N)N)NC(=O)[C@@H](NC(=O)[C@H](CCCCN)NC(=O)[C@H](CCCN=C(N)N)NC(=O)[C@@H](NC(=O)[C@H](CC(N)=O)NC(=O)[C@H](CCCN=C(N)N)NC(=O)[C@H](CCC(N)=O)NC(=O)[C@H](Cc1c[nH]c2ccccc12)NC(=O)[C@@H](N)Cc1ccccc1)[C@@H](C)CC)C(C)C)C(N)=O [FWQRNIRKVRRRI] | ≥ 137 µM |  |  |  |  |  | 
C[C@H](NC(=O)[C@H](C)NC(=O)[C@H](CCCCN)NC(=O)[C@H](CCCCN)NC(=O)[C@H](C)NC(=O)[C@H](C)NC(=O)[C@H](CCCCN)NC(=O)[C@H](CCCCN)NC(=O)[C@H](C)NC(=O)[C@H](C)NC(=O)[C@H](CCCCN)NC(=O)[C@H](CCCCN)NC(=O)[C@H](C)NC(=O)[C@H](C)NC(=O)[C@H](CCCCN)NC(=O)[C@H](CCCCN)NC(=O)[C@H](C)NC(=O)[C@H](C)NC(=O)[C@H](CCCCN)NC(=O)[C@H](CCCCN)NC(=O)[C@H](C)NC(=O)[C@H](C)NC(=O)[C@H](CCCCN)NC(=O)[C@H](CCCCN)NC(=O)[C@H](C)NC(=O)[C@H](C)NC(=O)[C@@H](N)CCCCN)C(=O)N[C@@H](CCCCN)C(=O)O [KAAKKAAKKAAKKAAKKAAKKAAKKAAK] |  | 31.4 µM (≈ 88 µg/mL) | ≥ 178 µM | ≥ 178 µM | ≥ 89 µM | > 178 µM | 
NCCCC[C@H](NC(=O)[C@H](Cc1ccccc1)NC(=O)[C@H](CCCCN)NC(=O)[C@H](CCCCN)NC(=O)[C@H](Cc1ccccc1)NC(=O)[C@H](CCCCN)NC(=O)[C@H](CCCCN)NC(=O)[C@H](Cc1ccccc1)NC(=O)[C@H](CCCCN)NC(=O)[C@H](CCCCN)NC(=O)[C@H](Cc1ccccc1)NC(=O)[C@H](CCCCN)NC(=O)[C@H](CCCCN)NC(=O)[C@H](Cc1ccccc1)NC(=O)[C@H](CCCCN)NC(=O)[C@H](CCCCN)NC(=O)[C@H](Cc1ccccc1)NC(=O)[C@@H](N)CCCCN)C(=O)O [KFKKFKKFKKFKKFKKFK] |  | 20.4 µM (≈ 49.8 µg/mL) | ≥ 36.1 µM | ≥ 205 µM | ≥ 51.2 µM | 145 µM (≈ 354 µg/mL) | 
C[C@H](NC(=O)[C@H](Cc1ccccc1)NC(=O)[C@H](CCCCN)NC(=O)[C@H](CCCCN)NC(=O)[C@H](C)NC(=O)[C@H](Cc1ccccc1)NC(=O)[C@H](CCCCN)NC(=O)[C@H](CCCCN)NC(=O)[C@H](C)NC(=O)[C@H](Cc1ccccc1)NC(=O)[C@H](CCCCN)NC(=O)[C@H](CCCCN)NC(=O)[C@H](C)NC(=O)[C@H](Cc1ccccc1)NC(=O)[C@H](CCCCN)NC(=O)[C@H](CCCCN)NC(=O)[C@H](C)NC(=O)[C@H](Cc1ccccc1)NC(=O)[C@H](CCCCN)NC(=O)[C@H](CCCCN)NC(=O)[C@H](C)NC(=O)[C@H](Cc1ccccc1)NC(=O)[C@H](CCCCN)NC(=O)[C@@H](N)CCCCN)C(=O)O [KKFAKKFAKKFAKKFAKKFAKKFA] |  | 15.5 µM (≈ 44.5 µg/mL) | 7.9 µM (≈ 22.6 µg/mL) | ≥ 87.2 µM | 21.6 µM (≈ 62 µg/mL) | 61.7 µM (≈ 177 µg/mL) | 
CC(C)C[C@H](NC(=O)[C@H](C)NC(=O)[C@H](CC(C)C)NC(=O)[C@H](C)NC(=O)[C@H](CC(C)C)NC(=O)[C@H](C)NC(=O)[C@H](CC(C)C)NC(=O)[C@H](C)NC(=O)[C@H](CC(C)C)NC(=O)[C@H](C)NC(=O)[C@H](CC(C)C)NC(=O)[C@H](C)NC(=O)[C@H](CC(C)C)NC(=O)[C@H](C)NC(=O)[C@H](CC(C)C)NC(=O)[C@H](C)NC(=O)[C@H](CC(C)C)NC(=O)[C@H](C)NC(=O)[C@H](CC(C)C)NC(=O)[C@H](C)NC(=O)[C@@H](N)CC(C)C)C(=O)N[C@@H](C)C(=O)O [LALALALALALALALALALALA] |  | ≥ 43.1 µM | ≥ 86.5 µM | ≥ 86.5 µM | ≥ 122 µM | > 245 µM | 
CC(C)C[C@H](NC(=O)[C@H](CCCCN)NC(=O)[C@H](CC(C)C)NC(=O)[C@H](CCCCN)NC(=O)[C@H](CC(C)C)NC(=O)[C@H](CCCCN)NC(=O)[C@H](CC(C)C)NC(=O)[C@H](CCCCN)NC(=O)[C@H](CC(C)C)NC(=O)[C@H](CCCCN)NC(=O)[C@H](CC(C)C)NC(=O)[C@H](CCCCN)NC(=O)[C@H](CC(C)C)NC(=O)[C@H](CCCCN)NC(=O)[C@H](CC(C)C)NC(=O)[C@H](CCCCN)NC(=O)[C@H](CC(C)C)NC(=O)[C@H](CCCCN)NC(=O)[C@@H](N)CC(C)C)C(=O)N[C@@H](CCCCN)C(=O)O [LKLKLKLKLKLKLKLKLKLK] |  | ≥ 36.2 µM | ≥ 79.6 µM | ≥ 72.7 µM | ≥ 51.4 µM | 145 µM (≈ 354 µg/mL) | 
CC(C)C[C@H](NC(=O)[C@H](CCCCN)NC(=O)[C@H](CC(C)C)NC(=O)[C@H](CCCCN)NC(=O)[C@H](CC(C)C)NC(=O)[C@H](CCCCN)NC(=O)[C@H](CC(C)C)NC(=O)[C@H](CCCCN)NC(=O)[C@H](CC(C)C)NC(=O)[C@H](CCCCN)NC(=O)[C@H](CC(C)C)NC(=O)[C@H](CCCCN)NC(=O)[C@H](CC(C)C)NC(=O)[C@H](CCCCN)NC(=O)[C@H](CC(C)C)NC(=O)[C@H](CCCCN)NC(=O)[C@@H](N)CC(C)C)C(=O)N[C@@H](CCCCN)C(=O)O [LKLKLKLKLKLKLKLKLK] |  | 20.3 µM (≈ 44.5 µg/mL) | ≥ 40.2 µM | ≥ 161 µM | ≥ 36.5 µM | 161 µM (≈ 354 µg/mL) | 
CC(C)C[C@H](NC(=O)[C@H](CCCCN)NC(=O)[C@H](CC(C)C)NC(=O)[C@H](CCCCN)NC(=O)[C@H](CC(C)C)NC(=O)[C@H](CCCCN)NC(=O)[C@H](CC(C)C)NC(=O)[C@H](CCCCN)NC(=O)[C@H](CC(C)C)NC(=O)[C@H](CCCCN)NC(=O)[C@H](CC(C)C)NC(=O)[C@H](CCCCN)NC(=O)[C@H](CC(C)C)NC(=O)[C@H](CCCCN)NC(=O)[C@@H](N)CC(C)C)C(=O)N[C@@H](CCCCN)C(=O)O [LKLKLKLKLKLKLKLK] |  | 23 µM (≈ 44.9 µg/mL) | ≥ 64.1 µM | ≥ 90.7 µM | ≥ 66.7 µM | 181 µM (≈ 354 µg/mL) | 
CC[C@H](C)[C@H](NC(=O)[C@@H]1CCCN1C(=O)[C@H](CCCN=C(N)N)NC(=O)[C@@H]1CCCN1C(=O)[C@@H]1CCCN1C(=O)[C@@H](NC(=O)[C@@H]1CCCN1C(=O)[C@H](CCCN=C(N)N)NC(=O)[C@@H]1CCCN1C(=O)[C@H](CCCCN)NC(=O)[C@H](Cc1ccc(O)cc1)NC(=O)[C@H](CO)NC(=O)CNC(=O)[C@H](CCCCN)NC(=O)[C@H](CC(=O)O)NC(=O)[C@@H](N)C(C)C)[C@@H](C)O)C(=O)N[C@@H](Cc1ccc(O)cc1)C(=O)N[C@@H](CC(N)=O)C(=O)N[C@@H](CCCN=C(N)N)C(=O)N[C@@H](CC(N)=O)C(=O)O [VDKGSYKPRPTPPRPIYNRN] |  |  |  |  |  |  | 0.3 µM (≈ 0.707 µg/mL)
CC[C@H](C)[C@H](NC(=O)[C@H](CCCN=C(N)N)NC(=O)[C@H](CCCN=C(N)N)NC(=O)[C@@H]1CCCN1C(=O)[C@@H]1CCCN1C(=O)[C@H](CCCN=C(N)N)NC(=O)[C@@H]1CCCN1C(=O)[C@H](CCCN=C(N)N)NC(=O)[C@@H]1CCCN1C(=O)[C@H](CC(C)C)NC(=O)[C@H](Cc1ccc(O)cc1)NC(=O)CNC(=O)[C@@H]1CCCN1C(=O)[C@H](CCCCN)NC(=O)[C@H](CC(=O)O)NC(=O)[C@@H](N)C(C)C)C(=O)N[C@@H](Cc1ccc(O)cc1)C(=O)N[C@@H](CC(N)=O)C(=O)N[C@@H](CCCN=C(N)N)C(N)=O [VDKPGYLPRPRPPRRIYNR] |  |  |  |  |  |  | 2.04 µM (≈ 4.8 µg/mL)
CC[C@H](C)[C@H](NC(=O)[C@H](CCCN=C(N)N)NC(=O)[C@H](CCCN=C(N)N)NC(=O)[C@@H]1CCCN1C(=O)[C@@H]1CCCN1C(=O)[C@H](CCCN=C(N)N)NC(=O)[C@H](CCCN=C(N)N)NC(=O)[C@H](CCCN=C(N)N)NC(=O)[C@@H]1CCCN1C(=O)[C@H](CC(C)C)NC(=O)[C@H](Cc1ccc(O)cc1)NC(=O)[C@@H]1CCCN1C(=O)[C@H](CCCN=C(N)N)NC(=O)[C@H](CCCCN)NC(=O)[C@H](CC(=O)O)NC(=O)[C@@H](N)C(C)C)C(=O)N[C@@H](Cc1ccc(O)cc1)C(=O)N[C@@H](CC(N)=O)C(=O)N[C@@H](CCCN=C(N)N)C(N)=O [VDKRPYLPRRRPPRRIYNR] |  |  |  |  |  |  | 0.638 µM (≈ 1.6 µg/mL)
CC[C@H](C)[C@H](NC(=O)[C@H](CCCN=C(N)N)NC(=O)[C@H](CCCN=C(N)N)NC(=O)[C@@H]1CCCN1C(=O)[C@@H]1CCCN1C(=O)[C@H](CCCN=C(N)N)NC(=O)[C@@H]1CCCN1C(=O)[C@H](CCCN=C(N)N)NC(=O)[C@@H]1CCCN1C(=O)[C@H](CC(C)C)NC(=O)[C@H](Cc1ccc(O)cc1)NC(=O)[C@@H]1CCCN1C(=O)[C@@H]1CCCN1C(=O)[C@H](CCCCN)NC(=O)[C@H](Cc1c[nH]c2ccccc12)NC(=O)[C@@H](N)C(C)C)C(=O)N[C@@H](Cc1ccc(O)cc1)C(=O)N[C@@H](CC(N)=O)C(=O)N[C@@H](CCCN=C(N)N)C(N)=O [VWKPPYLPRPRPPRRIYNR] |  |  |  |  |  |  | 1.95 µM (≈ 4.8 µg/mL)
CC[C@H](C)[C@H](NC(=O)[C@H](CCCN=C(N)N)NC(=O)[C@H](CCCN=C(N)N)NC(=O)[C@@H]1CCCN1C(=O)[C@@H]1CCCN1C(=O)[C@H](CCCN=C(N)N)NC(=O)[C@@H]1CCCN1C(=O)[C@H](CCCN=C(N)N)NC(=O)[C@@H]1CCCN1C(=O)[C@H](CC(C)C)NC(=O)[C@H](Cc1ccc(O)cc1)NC(=O)[C@@H]1CCCN1C(=O)[C@@H]1CCCN1C(=O)[C@H](CCCCN)NC(=O)[C@H](Cc1ccc(O)cc1)NC(=O)[C@@H](N)C(C)C)C(=O)N[C@@H](Cc1ccc(O)cc1)C(=O)N[C@@H](CC(N)=O)C(=O)N[C@@H](CCCN=C(N)N)C(N)=O [VYKPPYLPRPRPPRRIYNR] |  |  |  |  |  |  | 1.97 µM (≈ 4.8 µg/mL)
